Source: the supplement of paper PMC6045584
± gives the standard deviation of the averaged measurements.

How the values were obtained:
[1] = compound: CCN(CC)CCNC(=O)c1c(C)[nH]c(/C=C2\C(=O)Nc3ccc(F)cc32)c1C [SUNITINIB]; test: surviving fraction relative to DMSO-only wells; higher = less growth inhibition; details: exposure time: 5 days
Outline: (§1)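 In 384-well plates, 250–500 log-phase tumour cells per well were given 24 hours before five days of continuous exposure to inhibitors at 0.5, 1, 5, 10, 50, 100, 500 and 1000 nM. Surviving fraction is luminescence from CellTiter-Glo, normalised to the median of wells containing DMSO alone. Reading took place after 10 minutes at room temperature.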

[2] = compound: O=C(NOCC1CC1)c1ccc(F)c(F)c1Nc1ccc(I)cc1Cl; test: as above; details: exposure time: 5 days
Outline: as §1

Test System | surviving fraction ([1]; 0.5 nM) | surviving fraction ([1]; 1 nM) | surviving fraction ([1]; 10 nM) | surviving fraction ([1]; 100 nM) | surviving fraction ([1]; 500 nM) | surviving fraction ([1]; 1000 nM) | surviving fraction ([2]; 0.5 nM) | surviving fraction ([2]; 1 nM) | surviving fraction ([2]; 5 nM) | surviving fraction ([2]; 10 nM) | surviving fraction ([2]; 50 nM) | surviving fraction ([2]; 100 nM) | surviving fraction ([2]; 500 nM) | surviving fraction ([2]; 1000 nM) | surviving fraction ([1]; 50 nM) | surviving fraction ([1]; 5 nM)
OSHN BONE | 0.9083 ± 0.0045 | 0.906 ± 0.0096 | 0.8813 ± 0.0055 | 0.962 ± 0.017 | 0.86 ± 0.019 | 0.42 ± 0.026 | 0.969 ± 0.026 | 0.983 ± 0.029 | 0.979 ± 0.019 | 0.988 ± 0.028 | 0.969 ± 0.03 | 0.989 ± 0.016 | 0.973 ± 0.018 | 1 ± 0.027 | – | –
PCI30 HEADNECK | 0.949 ± 0.075 | 0.936 ± 0.033 | 1.13 ± 0.05 | 1.45 ± 0.19 | 1.2 ± 0.033 | 1.03 ± 0.052 | 0.831 ± 0.027 | 0.849 ± 0.074 | 1.02 ± 0.078 | 1.01 ± 0.029 | 0.903 ± 0.015 | 0.758 ± 0.026 | 0.433 ± 0.036 | 0.402 ± 0.023 | 1.38 ± 0.064 | –
MFM223 BREAST | 0.75 ± 0.033 | 0.758 ± 0.032 | 0.707 ± 0.041 | 0.832 ± 0.058 | 0.398 ± 0.013 | 0.247 ± 0.015 | 1.09 ± 0.046 | 1.06 ± 0.088 | 1.05 ± 0.059 | 1.07 ± 0.089 | 1.14 ± 0.037 | 1.12 ± 0.057 | 1.012 ± 0.0095 | 1.04 ± 0.03 | 1.01 ± 0.11 | 0.7412 ± 0.002
NOS1 BONE | 0.762 ± 0.05 | – | 0.645 ± 0.039 | 0.391 ± 0.027 | 0.167 ± 0.012 | 0.113 ± 0.03 | 1.15 ± 0.08 | 1.15 ± 0.075 | 1.16 ± 0.057 | 1.16 ± 0.062 | 0.949 ± 0.065 | 0.952 ± 0.1 | 0.863 ± 0.054 | 0.773 ± 0.016 | 0.561 ± 0.029 | –
HCC1806 BREAST | 0.677 ± 0.078 | 0.59 ± 0.41 | 0.566 ± 0.43 | 0.978 ± 0.11 | 0.677 ± 0.039 | 0.397 ± 0.044 | 1.04 ± 0.026 | 1.01 ± 0.098 | 1.09 ± 0.16 | 1.12 ± 0.079 | 1.1 ± 0.058 | 1.17 ± 0.048 | 0.761 ± 0.094 | 0.671 ± 0.022 | 1 ± 0.091 | 0.667 ± 0.45
SG31 HEADNECK | 0.778 ± 0.067 | 0.858 ± 0.037 | 0.419 ± 0.04 | 0.962 ± 0.14 | 0.797 ± 0.13 | 0.343 ± 0.017 | 1.02 ± 0.087 | 0.977 ± 0.097 | 0.951 ± 0.14 | 1.06 ± 0.18 | 0.778 ± 0.12 | 0.756 ± 0.11 | 0.575 ± 0.032 | 0.547 ± 0.088 | 0.93 ± 0.06 | 0.884 ± 0.12
HMLE3 BREAST | 0.887 ± 0.037 | 0.715 ± 0.058 | 0.241 ± 0.053 | 0.832 ± 0.061 | 0.498 ± 0.018 | 0.108 ± 0.0078 | 0.845 ± 0.061 | 0.91 ± 0.028 | 0.922 ± 0.053 | 0.862 ± 0.017 | 0.733 ± 0.032 | 0.745 ± 0.048 | 0.525 ± 0.03 | 0.612 ± 0.001 | 0.867 ± 0.064 | 0.816 ± 0.019
MDAMB361 BREAST | 0.683 ± 0.049 | 0.717 ± 0.023 | 0.651 ± 0.025 | – | 0.8 ± 0.011 | 0.527 ± 0.054 | 1.06 ± 0.12 | 0.887 ± 0.067 | 0.986 ± 0.076 | 0.973 ± 0.029 | 0.963 ± 0.083 | 1.03 ± 0.019 | 1.05 ± 0.072 | 0.972 ± 0.12 | 0.82 ± 0.069 | 0.696 ± 0.058
A549 LUNG | 0.922 ± 0.021 | 0.907 ± 0.029 | 0.89 ± 0.031 | – | 1.04 ± 0.014 | 1.03 ± 0.02 | 0.931 ± 0.014 | 0.95667 ± 0.00058 | 0.947 ± 0.017 | 0.956 ± 0.019 | 0.964 ± 0.027 | 1.01 ± 0.02 | 0.93 ± 0.013 | 0.886 ± 0.015 | 0.991 ± 0.026 | 0.903 ± 0.013
VP229 BREAST | 0.708 ± 0.076 | 0.675 ± 0.1 | 0.709 ± 0.065 | 0.964 ± 0.038 | 0.762 ± 0.064 | 0.364 ± 0.051 | 1.11 ± 0.054 | 1.16 ± 0.099 | 1.24 ± 0.14 | 1.08 ± 0.041 | 1.03 ± 0.13 | 0.908 ± 0.043 | 0.782 ± 0.039 | 0.769 ± 0.074 | 0.955 ± 0.12 | 0.709 ± 0.04
MDAMB436 BREAST | 0.761 ± 0.07 | 0.78 ± 0.046 | 0.79 ± 0.099 | 0.913 ± 0.071 | 0.718 ± 0.061 | 0.596 ± 0.023 | 0.904 ± 0.065 | 0.905 ± 0.024 | 0.932 ± 0.026 | 0.883 ± 0.029 | 0.8685 ± 0.0053 | 0.959 ± 0.085 | 0.944 ± 0.023 | 0.78 ± 0.016 | 0.85 ± 0.087 | 0.79 ± 0.011
